The source of these data is patent US20260132172A1, “IN VITRO BIOSYNTHESIS OF DIVERSE PYRIDINE-BASED MACROCYCLIC PEPTIDES” (The Brd. of Trustees of the Univ. of Illinois, priority 2022, published 2026).

For orientation: IC50 means the concentration that inhibits the measured activity by half.

The subject of the first test is MroB/C. Kind of test: MroB/C dehydration (Dha formation) of MroA precursor peptide variants, MALDI-TOF-MS / LC-MS/MS. The test is classed as biochemical, Micromonospora rosaria. The settings on record: MroA2 multi-site variants, in vitro translated, MALDI-TOF-MS. The protocol:
In a 0.65 mL protein low-binding Eppendorf tube placed on ice. 0.75 μL of purified mroA variant template DNA was mixed with 0.75 μL of Solution B and 1 μL of Solution A of PURExpress In vitro Protein Synthesis Kit (E6800L) purchased from NEB (total volume of reaction is 2.5 μL). The translation reactions were performed at 37° C. for 1 h on an aluminum block.
For a full MroBCD substrate scope investigation, a total translation volume for each variant of 7.5 μL was performed. 1.5 μL of 90 mM iodoacetamide (IAA) was added to quench dithiothreitol (DTT) in the translation reaction mixture, a thiol-based nucleophile that can react with electrophilic dehydroalanines generated from MroBC-catalyzed dehydration assays. The translation product was split into two parts with these corresponding volumes: 3 μL and 6 μL. In the 6 μL part. 10.2 μL of the enzyme mix containing enzymes and cofactors was added along with 1.8 μL 90 mM ATP (pH 7.5), which was used to initiate the reaction. The enzyme mix was made by adding these components in the following order: HEPES pH 7.5, MgCl2, glutamate, T. bispora tRNA^Glu (CUC), thermostable inorganic pyrophosphatase (TIPP), TEV (L56V/S135G/S219V) (w/w ratio with a total amount of MBP-tagged protein=1:10), MBP-MroB, MBP-MroC, and T. bispora GluRS. The enzyme mix was incubated 25 min at room temperature before adding to the translation product to facilitate in situ TEV-catalyzed cleavage of MBP from MBP-MroB and MBP-MroC. The enzymatic reaction proceeded for 1 h at room temperature. Overall, the concentration of components in the 18 μL reaction mix is as follows: 50 mM HEPES pH 7.5, 5 mM MgCl2. L-glutamate 1 mM, 3 μM T. bispora tRNA^Glu, 1 μM T. bispora GluRS, 2 μM MBP-MroB, 2 μM MBP-MroC, […], 0.027 U/μL TIPP, and 5 mM IAA. In addition, the 3 μL part was incubated with the same buffer lacking enzymes and tRNA as a translation control.
The reactions were performed similarly as described above, with 10 μM substrate concentration and without IAA. The total volume of each reaction is 100 μL.
Enzymatic assays were desalted using solid-phase extraction prior to LC-ESI-MS/MS analysis. Specifically, except for the thiazol(in)es-containing pyritide (which utilize 8 mg Pierce C18 Spin Column), the samples were applied to Toptip C18 (10-200 μL, Glygen Corp) wetted with 50 μL of 80% acetonitrile (0.1% formic acid) and equilibrate with 150 μL of 0.1% formic acid following the manufacturer instructions. The C18 columns (tips) are then washed with 150 μL of 0.1% formic acid and eluted using 100 μL 80% acetonitrile (0.1% formic acid). The samples were then dried utilizing lyophilization and redissolved in 25% acetonitrile (80 μL for enzymatic assays of in vitro-translated substrates and 200 μL for enzymatic assays of purified substrates). Then 20 μL of each sample was injected into an Agilent AdvanceBio Peptide Plus column (2.1×150 mm, 2.7 μm) equipped with an Agilent 6545B Q-TOF interfaced with an Agilent 1290 Infinity II LC system. Mobile phase solvents were composed of H2O, 0.1% formic acid (Solvent A), and acetonitrile 0.1% formic acid (Solvent B). The column compartment was maintained at 35° C. during all experiments. The column was equilibrated with 5 column volumes of starting mobile phase (95% A and 5% B) between injections. The gradient of all LC runs was as follows: 0-2 min: 95% A 5% B, 2-3 min: 70% A 30% B, 3-18 min: 20% A 80% B, 18-20 min: 5% A 95% B. The samples were run to waste for the first 3 min before applying to the mass spectrometer. Mass range was set from 100 to 1700 m/z (except for 412MroA1 W7G: 100-3000 m/z). MS parameters were as follows: gas, 320° C. at 8 L/min: nebulizer, 35 psig: nozzle voltage, 1000 V: sheath gas, 350° C. at 11 L/min: capillary, 3500 V: fragmentor, 125 V: skimmer, 65 V: MS scan rate (10) spectra/s): MS-MS scan rate (5 spectra/s); and isolation width (MS/MS), 1.3 m z. […]
With SGYHFHNRSWLI [Number 54-V8R], the Dha formation came out at 2 Dha.
As to SGGYRPHSWLI [Number 38], the Dha formation is 2 Dha.
As for SGRANSWLI [Number 2], the Dha formation is on record as 2 Dha.
The substance SGVKADSWLI [Number 4] displayed a Dha formation of 2 Dha.
The substance SGLQHGKRSWLI [Number 52-Y8R] had a Dha formation of 2 Dha.
On the same count and under the same terms, under SGKALEFSWLI [Number 29] stands 2 Dha; under SGIAKEVRSWLI [Number 47-Q8R], 2 Dha.
Same read-out and setting: under SGRYAGWSWLI [Number 39] stands 2 Dha; under SGIAKEVQSWLI [Number 47], 2 Dha; under SGYHFHNVSWLI [Number 54], 2 Dha.
The substance SGYDRQYSWLI [Number 56] returned a Dha formation of 2 Dha.
SGLQHGKYSWLI [Number 52] showed a Dha formation of 2 Dha.
For the substance SGDAMRWRSWLI [Number 53-A8R], the Dha formation turned out to be 2 Dha.
Still for that read-out and setting: the same measure for SGKAPGRSWLI [Number 16]: 2 Dha.
SGAVRFNGSWLI [Number 36]: the Dha formation was 2 Dha.
SGHYKPQRSWLI [Number 55-A8R] came in with a Dha formation of 2 Dha.
In turn, SGNERGSWLI [Number 9] showed a Dha formation of 2 Dha.
Substance SGPKGSWLI [Number 5] displayed a Dha formation of 2 Dha.
Same read-out and setting: under SGHYKPQASWLI [Number 55] stands 2 Dha; under SGIYHNSWLI [Number 20], 2 Dha; under SGYDRQRSWLI [Number 56-Y7R], 2 Dha.
SGHQFKSWLI [Number 22] came in with a Dha formation of 2 Dha.
In turn, SGVKAWSWLI [Number 14] had a Dha formation of 2 Dha.
Still for that read-out and setting: the same measure for SGPMHYSWLI [Number 21]: 2 Dha.
The substance SGHWANSWLI [Number 15] displayed a Dha formation of 2 Dha.

Another test relates to MroB. The test is described as follows: Competition fluorescence polarization with fluorescein-Δ12MroA1, MroB. The test is classed as binding, Micromonospora rosaria. The note with it: competition FP, 80 nM enzyme, 5 nM labeled Δ12MroA1. The protocol: (§1) The initial sample contained 80 nM enzyme, 5 nM labeled Δ12MroA1 peptide, and competitor peptide (concentration is from 20 μM to 100 μM, depending on the experiment). In a black 384-well plate (Corning 3575), 30 μL of initial sample was added to the first well, followed by 13 2-fold dilutions into subsequent wells containing 80 nM MBP-MroB and 5 nM labeled Δ12MroA1. The plate was covered from light and incubated at room temperature for 10 min, and then fluorescence polarization was measured (Biotek Synergy H4 hybrid reader) using the following filter (Ex: Em—485 nm/20 nm: 518 nm/20 nm). The obtained data was converted to anisotropy value and plotted against peptide concentration, and fitted to dose-response function:
(§2) Where: y=anisotropy value, A1=minimum anisotropy, A2=maximum anisotropy, p=Hill's coefficient, x=competitor concentration. The obtained IC50 was used to calculate inhibitor constant Krusing the following equation: 12
(§3) In cases where competitor concentration was not high enough to achieve a plateau, the competition curve was fitted with minimum anisotropy fixed to be the same value as the anisotropy value of the free probe solution. This calculation assumed that the labeled peptide was completely displaced from the enzyme binding pocket at a very high concentration of the competitor. […] The specific minimum anisotropy used in this experiment for both MroB and MroD was 65.
Background: Polarisation of emitted light reports the rotation of a fluorescent probe.
With “H-SDLDIVDLDLAVDEELAALSVGGLGNTEVGASGWLGSWGI-OH [Δ12MroA1-V8G]”, the IC50 was determined as 1100 ± 200 nM.

A further test deals with MroD. The test is described as follows: Competition fluorescence polarization with fluorescein-Δ12MroA1, MroD. The test is classed as binding, Micromonospora rosaria. The note with it: competition FP, 80 nM enzyme, 5 nM labeled Δ12MroA1. The protocol: as §1, §2, §3
Take “H-SDLDIVDLDLAVDEELAALSVGGLGNTEVGASGWLGSWGI-OH [Δ12MroA1-V8G]”: the IC50 turned out to be 1700 ± 400 nM.

Another test addresses MBP-MroB (Micromonospora rosaria MroB with maltose-binding protein fused to the N-terminus) (Micromonospora rosaria) [MBP: P0AEX9]. The test is described as follows: competition fluorescence polarization against fluorescein-Δ12MroA1.
Conditions: not given
The substance “Δ12MroA1 (variant of MroA1 in which the first 12 residues were deleted) (peptide)” returned a concentration for half-maximal inhibition (IC50) of 680 nM.
Same read-out and setting: under Δ12MroA1-W7G (peptide) stands 8100 nM; under GlyAla-MroA1 core (peptide), 27200 nM.
Turning to Δ12MroA1-I9G (peptide), the concentration for half-maximal inhibition (IC50) is 2000 nM.
Δ12MroA1-V8G (peptide) yielded an IC50 of 1100 nM.
Δ12MroA1 Leader (peptide) returned a 50% inhibitory concentration (IC50) of 19400 nM.
As to Δ12MroA1-COOMe (peptide), the half-inhibitory concentration (IC50) was 4200 nM and the fold loss in binding affinity (against Δ12MroA1) was determined as 8 fold.

The next test concerns the target MBP-MroD (Micromonospora rosaria MroD with maltose-binding protein fused to the N-terminus) (Micromonospora rosaria) [MBP: P0AEX9]. The description is as above.
Conditions: not given
“Δ12MroA1 (variant of MroA1 in which the first 12 residues were deleted) (peptide)” showed an IC50 of 900 nM.
Substance Δ12MroA1-W7G (peptide) returned a half-maximal inhibitory concentration (IC50) of 2400 nM.
On to GlyAla-MroA1 core (peptide), for which the IC50 worked out at 40900 nM.
Take Δ12MroA1-I9G (peptide): the half-maximal inhibitory concentration (IC50) came to 910 nM.
Consider Δ12MroA1-V8G (peptide), for which the IC50 came to 1700 nM.
As for Δ12MroA1 Leader (peptide), the IC50 was determined as 16000 nM.
As for Δ12MroA1-COOMe (peptide), the IC50 is 400 nM.

Another test has as its system MroD. Kind of test: MroD [4+2] macrocyclization of didehydrated MroA2 variants, MALDI-TOF-MS. The settings on record: MroA2 multi-site variants; qualitatively estimated from leader peptide vs remaining didehydrated intermediate. Also on record: key: +++ indicates enzyme activity roughly equal to wild-type MroA2; ++ indicates modestly reduced enzyme activity; + indicates severely reduced enzyme activity; − indicates no detectable enzyme activity (no macrocycles detected). In kind it is biochemical, Micromonospora rosaria. The protocol: (§4) After incubation, the enzyme reaction (18 μL) was split into two equal parts. One part was treated with MBP-MroD such that the final concentration of MBP-MroD is 3 μM, and the other part was added the same volume but with buffer lacking MBP-MroD (50 mM HEPES, 300 mM NaCl, 2.5% glycerol, 0.5 mM TCEP). The reaction further proceeded for 1.5 h at room temperature. All reaction mixture was then desalted with solid-phase extraction using Ziptip with 0.6 μL C18 resin (EMD Millipore) and crystallized on an MTP384 steel target plate using either saturated sinapic acid or 50 mg/mL Super DHB [dissolved in 60% acetonitrile and 0.1% trifluoroacetic acid (TFA)] as the matrix. The crystallized spots were then analyzed using MALDI-TOF-MS (Bruker Ultraflex). The external standard for MALDI-TOF-MS analysis is ProteoMass Peptide and Protein MALDI-MS Calibration Kit (Sigma).
As to SGYHFHNRSWLI [Number 54-V8R], the “Relative MroD conversion” value is recorded as “−”.
With SGGYRPHSWLI [Number 38], the “Relative MroD conversion” value was “−”.
On the same count and under the same terms, under SGRANSWLI [Number 2] stands “−”; under SGVKADSWLI [Number 4], “−”; under SGLQHGKRSWLI [Number 52-Y8R], “−”.
Consider SGKALEFSWLI [Number 29], for which the “Relative MroD conversion” value is recorded as “−”.
As to SGIAKEVRSWLI [Number 47-Q8R], the “Relative MroD conversion” value is recorded as “−”.
Turning to SGRYAGWSWLI [Number 39], the “Relative MroD conversion” value was “−”.
Consider SGIAKEVQSWLI [Number 47], for which the “Relative MroD conversion” value is given as “−”.
On the same count and under the same terms, the same measure for SGYHFHNVSWLI [Number 54]: “−”.
In the case of SGYDRQYSWLI [Number 56], the “Relative MroD conversion” value was “−”.
Still for that read-out and setting: the same measure for SGLQHGKYSWLI [Number 52]: “−”; for SGDAMRWRSWLI [Number 53-A8R]: “−”.
For SGHYKPQRSWLI [Number 55-A8R], the “Relative MroD conversion” value was “−”.
Same read-out and setting: the same measure for SGHYKPQASWLI [Number 55]: “−”.

The test system of the next test is MroD. The test is described as above. In kind it is biochemical, Micromonospora rosaria. Also on record: key: +++ indicates enzyme activity roughly equal to wild-type MroA2; ++ indicates modestly reduced enzyme activity; + indicates severely reduced enzyme activity; − indicates no detectable enzyme activity (no macrocycles observed). The settings on record: MroA2 multi-site variants; qualitatively estimated from leader peptide vs remaining didehydrated intermediate. This is another data set of the same source. The protocol: as §4
As to SGKAPGRSWLI [Number 16], the “Relative MroD conversion” value was “+++”.
On to SGAVRFNGSWLI [Number 36], for which the “Relative MroD conversion” value is reported as “+”.
As for SGNERGSWLI [Number 9], the “Relative MroD conversion” value is on record as “+++”.
As for SGPKGSWLI [Number 5], the “Relative MroD conversion” value is “+++”.
The same measure, in the same setting: under SGIYHNSWLI [Number 20] stands “+++”.
Turning to SGYDRQRSWLI [Number 56-Y7R], the “Relative MroD conversion” value is given as “+++”.
In the case of SGHQFKSWLI [Number 22], the “Relative MroD conversion” value was “+++”.
Regarding SGVKAWSWLI [Number 14], the “Relative MroD conversion” value is “+++”.
Take SGPMHYSWLI [Number 21]: the “Relative MroD conversion” value is “+++”.
Consider SGHWANSWLI [Number 15], for which the “Relative MroD conversion” value is “+++”.
